# Measurements published in patent US20230151432A1, “KIF18A INHIBITORS FOR TREATMENT OF NEOPLASTIC DISEASES” (AMGEN INC., priority 2020, published 2023).
# Where two headings read alike, the source gives them in different places.
# Key:
# [1] = system: MDA-MB-157 TNBC cells; test: Imaging-based Centrosome Count Assay (CCA); assay type: cell-based; settings: Homo sapiens, 24 hours of treatment
# Experimental: To analyze the effects of a KIF18A inhibitor on the mitotic phenotype of cancer cells, an imaging-based Centrosome Count Assay (CCA) carried out using a KIF18A inhibitor was carried out. In preparation for plating, MDA-MB-157 TNBC cells were resuspended seven times through a 10 mL syringe with 18-G needle to create a single-cell suspension. Cells were seeded at a density of 30 000 cells per well using the BRAVO Automated Liquid Handling Platform (Agilent Technologies, Santa Clara, Calif.) into Corning 96-well Flat Clear Bottom Black Polystyrene plate (Corning, N.Y.) in 100 μL of complete media and grown for 24 hours. […] Imaging data was acquired on Cellomics ArrayScan VTI HCS Reader (SN03090745F, ThermoFisher Scientific) using the SpotDetector.V4 Assay protocol (Ver 6.6.0 (Build 8153) with a 20×objective, experiment #1 collected 100-fields per well; experiment #2 collected 67-fields per well). […] The percentage of mitotic objects with >2 pericentrin spots (proxy for centrosome number) was determined for each well. […] This represents the total valid p-Histone H3 positive mitotic object count based on the set fluorescence intensity threshold using alexa-647 (channel 3). • (3) % Selected Object pHH3. […]
# [2] = system: OVCAR-8 NCI/ADR-RES cells; test: Nuclear count assay in multidrug resistant cells, with or without P-gp inhibitor; assay type: cell-based, human; settings: OVCAR-8 NCI-ADR RES subline, Count POC (FIG. 3E)
# Experimental: Compound was added to the cells with a final volume of 200 μL in complete media containing 0.5% DMSO.
# The plates were sealed and incubated for 1 hour at room temperature in the dark. Cells were stored at 4° C. in the dark until data acquisition. […] The Total Valid Object Count was represented as a Count POC (Percentage of DMSO Control) using the following formula:
# Briefly, OVCAR-8 cells were seeded in duplicate in a Corning 96-well Flat Clear Bottom Black Polystyrene plates (Corning, N.Y.) in 100 μL of appropriate complete media at the appropriate density and grown for 24 hours. […] After 4 days (96 hours) of treatment, the cells were fixed by removing 100 μL of complete media from each well and replacing it with 100 μL of 2×formaldehyde (final 4%) and incubating the plates for 15 minutes at room temperature. […] The plates were sealed and incubated for 1 hour at room temperature in the dark. Cells were stored at 4° C. in the dark until data acquisition. […] The Total Valid Object Count was represented as a Count POC (Percentage of DMSO Control) using the following formula:
# Count POC=(Total Valid Object Count in treated well)[…](Total Valid Object Count in DMSO treated wells)×100
# Compound concentration and Count POC values were plotted using GraphPad Prism software (V7.0.4) and curve-fitting was performed with 4-parameter equation (variable slope). The concentration-response curves and standard deviation represent two independent experiments run in duplicate.
structure (smiles),measurement,setting,value
"Cc1cc(NC(=O)c2ccc(NS(=O)(=O)CCO)cc2N2CCC3(CC2)CC3)nc(N2CCC(F)(F)CC2)n1 [Compound C14, N-(2-(4,4-Difluoropiperidin-1-yl)-6-methylpyrimidin-4-yl)-4-((2-hydroxyethyl)sulfonamido)-2-(6-azaspiro[2.5]octan-6-yl)benzamide]",EC50,"[1]; read-out: EC50, increase in p-Histone H3 positive cells",79.4 nM
same,EC50,"[1]; read-out: EC50, pericentrin spotting (>2 spots per mitotic object)",52.2 nM
same,"sensitivity of the cell line compared with PARP inhibitor, paclitaxel, doxorubicin, carboplatin",[2],greatest sensitivity
